The values below come from the supplement of paper PMC11061612.

For assay [1], the system named is CTV-1 (T-Lymphoblastic Leukemia). Description: Bliss excess, mean over the matrix (fraction); higher = more synergy. The gist of the method:
(§1)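 Cell lines grown in DMEM/F12 or RPMI with 10% FBS were plated in 1536-well plates and held 24 hours at 37°C, 5% CO2 before 72 hours of exposure to two-drug dose matrices, with DMSO typically at 0.2%. CellTiter-Glo 2.0 luminescence gave viability, which was converted to inhibition. Vehicle wells were set to 0 and blank wells to 1. Combination Emax is the second-highest inhibition in the matrix, and Bliss excess is the observed combination effect minus the expected EA + EB − EA·EB, where EA and EB are the single-agent effects.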

Assay [2] relates to G-292-Clone-A141B1 (Osteosarcoma). The assay is described as above. The gist of the method: as §1
Assay [3] deals with IHH-4 (Thyroid Gland Carcinoma). The assay is described as above. Put shortly:
as §1

For assay [4], the system named is J82 (Bladder Carcinoma). The description is as above. Put shortly:
as §1

For assay [5], the system named is JiyoyeP-2003 (Burkitt's Lymphoma). Described as above. The gist of the method: as §1
Assay [6] relates to KARPAS-620 (Plasma Cell Myeloma). The description is as above. The gist of the method: as §1
Assay [7] concerns KATOIII (Gastric Carcinoma). The description is as above. Put shortly:
as §1

For assay [8], the system named is MFH-ino (Other Solid Carcinomas). The assay is described as above. The gist of the method: as §1
In assay [9] the test system is NCI-H1299 (Non-Small Cell Lung Carcinoma). The description is as above. The gist of the method:
as §1

Assay [10] relates to RH-1 (Ewing's Sarcoma). The description is as above. The gist of the method: as §1
Assay [11] deals with U-266 (Plasma Cell Myeloma). Described as above. Put shortly: as §1
For assay [12], the system named is 697 (B-Lymphoblastic Leukemia). The experiment in a line: combination Emax (second highest fraction inhibited in the dose matrix, 72 h); higher = more inhibition; extreme values may be limits of the assay. Put shortly:
as §1

Assay [13] concerns CAL-78 (Chondrosarcoma). Described as above. The gist of the method: as §1
For assay [14], the system named is ES7 (Ewing's Sarcoma). The description is as above. The gist of the method: as §1
Assay [15] concerns J82 (Bladder Carcinoma). The assay is described as above. The gist of the method: as §1
Assay [16] relates to LS-513 (Colorectal Carcinoma). The assay is described as above. The gist of the method: as §1
The subject of assay [17] is NCI-H1299 (Non-Small Cell Lung Carcinoma). The assay is described as above. The gist of the method: as §1
The test system of assay [18] is NCI-H1793 (Lung Adenocarcinoma). The assay is described as above. The gist of the method: as §1
Assay [19] deals with SW1088 (Low Grade Glioma). Described as above. Put shortly:
as §1

Assay [20] deals with SW1990 (Pancreatic Carcinoma). The assay is described as above. The gist of the method: as §1
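For Bliss excess, mean over the matrix in this document: after 72 h of two-drug dosing.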

`Cc1c2c(nn1C)CSCc1cc(n(C)n1)CSc1cc(c3ccccc3c1)OCCCc1c(C(=O)O)n(C)c3c-2c(Cl)ccc13` [AZD5991] + CC1(C)CCC(CN2CCN(c3ccc(C(=O)NS(=O)(=O)c4ccc(NCC5CCOCC5)c([N+](=O)[O-])c4)c(Oc4cnc5[nH]ccc5c4)c3)CC2)=C(c2ccc(Cl)cc2)C1 [Venetoclax] (first compound max 1 µM, 7x7, partner max 1 µM): the Bliss excess in assay [1] was -0.0011; in assay [2] it was -0.0292; in [3], 0.0037; in [4], -0.0232; in [5], 0.0249; in [6], 0.119. Also, the Bliss excess was -0.0176 in assay [7]; -0.0512 in assay [8]; -0.031 in [9]; 0.0491 in assay [10]; 0.0759 in assay [11]. Moreover, the “combination Emax” value is 1 in assay [12]; 0.796 in [13]; 0.893 in [14]; 0.164 in assay [15]; 0.18 in [16]; 0.258 in assay [17]. Besides, the “combination Emax” value in assay [18] was found to be 0.174; in [19] it was 0.248; in [20] it was 0.164.
`Cn1cnc2c(F)c(Nc3ccc(Br)cc3Cl)c(C(=O)NOCCO)cc21` [Selumetinib] + CC(C)n1c(=O)n(C)c2cnc3cc(F)c(-c4ccc(OCCCN5CCCCC5)nc4)cc3c21 [AZD1390] (first compound max 10 µM, 7x7, partner max 0.3 µM): the Bliss excess is 0.0032 in [1]; -0.0567 in [2]; -0.0326 in assay [3]; 0.0142 in [4]; -0.0153 in assay [5]; 0.0201 in assay [6]. Besides, the Bliss excess was 0.011 in assay [7]; -0.023 in assay [8]; -0.012 in assay [9]; -0.0497 in assay [10]; -0.0413 in assay [11]. Further, the “combination Emax” value came out at 0.373 in [12]; 0.136 in assay [13]; 0.14 in [14]; 0.787 in assay [15]; 0.858 in assay [16]; 0.23 in assay [17]. Besides, the “combination Emax” value in assay [18] came out at 0.218; in [19], 0.14; in [20], 0.202.
With `NC1(C(=O)N[C@@H](CCO)c2ccc(Cl)cc2)CCN(c2ncnc3[nH]ccc23)CC1` [Capivasertib] + C[C@@H]1COCCN1C2=NC(=NC(=C2)C3(CC3)[S@](=N)(=O)C)C4=C5C=CNC5=NC=C4 [AZD6738] (first compound max 10 µM, 7x7, partner max 10 µM), the Bliss excess in assay [1] is 0.0489; in [2] it was -0.0276; in [3] it was 0.0028; in [4] it was -0.065; in [5], -0.0698; in assay [6], -0.0384. Besides, the Bliss excess is -0.0941 in assay [7]; -0.086 in assay [8]; -0.0309 in assay [9]; -0.0098 in [10]; -0.0793 in assay [11]. Besides, the “combination Emax” value in assay [12] came to 1; in assay [13], 0.663; in [14] it was 0.889; in assay [15], 0.65; in assay [16], 0.794; in assay [17], 0.602. Moreover, the “combination Emax” value in assay [18] was found to be 0.543; in [19], 0.707; in [20], 0.498.
Turning to `Cc1cc2ncnn2cc1Nc1ncc2c(n1)n(C1CCOCC1)c(=O)n2C` [AZD7648] + C=CCn1c(=O)c2cnc(Nc3ccc(N4CCN(C)CC4)cc3)nc2n1-c1cccc(C(C)(C)O)n1 [AZD1775] (first compound max 10 µM, partner max 1 µM), the Bliss excess in assay [1] was 0.0096; in [2], -0.0124; in assay [3], 0.0233; in [4], -0.008; in assay [5], 0.0246; in assay [6], -0.0493. For the same compound, the Bliss excess in assay [7] is -0.0052; in [8], 0.0118; in assay [9] it was -0.0314; in [10], 0.016; in assay [11], -0.0457. Further, the “combination Emax” value in assay [12] came out at 1; in assay [13], 0.458; in [14], 0.541; in [15] it was 0.244; in assay [16] it was 0.776; in [17] it was 0.72. The “combination Emax” value in assay [18] was 0.416; in assay [19] it was 0.504; in assay [20], 0.467.
For `Cc1c2c(nn1C)CSCc1cc(n(C)n1)CSc1cc(c3ccccc3c1)OCCCc1c(C(=O)O)n(C)c3c-2c(Cl)ccc13` [AZD5991] + C=CCn1c(=O)c2cnc(Nc3ccc(N4CCN(C)CC4)cc3)nc2n1-c1cccc(C(C)(C)O)n1 [AZD1775] (first compound max 1 µM, partner max 1 µM), the Bliss excess in assay [1] is 0.0316; in [2] it was -0.0178; in assay [3] it was 0.02; in assay [4], -0.0372; in assay [5], -0.0253; in assay [6], -0.0032. The Bliss excess in assay [7] is -0.029; in assay [8] it was 0.0604; in assay [9] it was -0.0048; in assay [10], -0.0575; in [11] it was -0.0008. Moreover, the “combination Emax” value in assay [12] was 1; in [13], 0.853; in assay [14] it was 0.732; in assay [15], 0.314; in assay [16] it was 0.871; in assay [17] it was 0.83. Besides, the “combination Emax” value amounted to 0.488 in assay [18], 0.352 in assay [19] and 0.537 in assay [20].
As to `CCN(CCO)CCCOc1ccc2c(Nc3cc(CC(=O)Nc4cccc(F)c4)[nH]n3)ncnc2c1` [AZD2811] + O=C(c1cc(Cc2n[nH]c(=O)c3ccccc23)ccc1F)N1CCN(C(=O)C2CC2)CC1 [Olaparib] (first compound max 1 µM, 7x7, partner max 10 µM), the Bliss excess in [1] was 0.0712; in assay [2], 0.0252; in [3], 0.0229; in [4], -0.0207; in assay [5], 0.0809; in assay [6], 0.0273. Also, the Bliss excess in assay [7] is -0.0332; in assay [8] it was -0.0318; in assay [9], -0.0131; in [10], -0.0451; in [11] it was -0.0139. Further, the “combination Emax” value in assay [12] was found to be 1; in [13], 0.416; in assay [14], 0.918; in [15], 0.0709; in assay [16], 0.404; in assay [17], 0.303. Besides, the “combination Emax” value in assay [18] turned out to be 0.0897; in assay [19] it was 0.616; in assay [20], 0.168.
Take `CC1(C)CCC(CN2CCN(c3ccc(C(=O)NS(=O)(=O)c4ccc(NCC5CCOCC5)c([N+](=O)[O-])c4)c(Oc4cnc5[nH]ccc5c4)c3)CC2)=C(c2ccc(Cl)cc2)C1` [Venetoclax] + C[C@@H]1COCCN1C2=NC(=NC(=C2)C3(CC3)[S@](=N)(=O)C)C4=C5C=CNC5=NC=C4 [AZD6738] (first compound max 1 µM, 7x7, partner max 10 µM): the Bliss excess is -0.0067 in assay [1]; -0.0438 in assay [2]; -0.0482 in [3]; 0.0106 in assay [4]; 0.0139 in assay [5]; 0.0235 in assay [6]. Moreover, the Bliss excess in [7] is -0.0859; in assay [8], -0.0926; in [9] it was -0.0203; in assay [10], -0.0158; in assay [11], -0.0402. The “combination Emax” value was 1 in [12]; 0.605 in assay [13]; 0.941 in assay [14]; 0.483 in assay [15]; 0.677 in assay [16]; 0.534 in assay [17]. Moreover, the entries for the “combination Emax” value in [18], in assay [19] and in assay [20] were 0.508, 0.684 and 0.666, respectively.
